Test results from ChEMBL document CHEMBL5696441 (Nat Chem Biol, 2011).

Experiments:
[1] = system: Tyrosine-protein kinase ABL1 (Homo sapiens), P00519 [M351T]; assay: Inhibition of ABL1 M351T mutant (unknown origin) assessed as remaining activity at 1 uM by Kinome scan method relative to control
[2] = molecular target: Serine/threonine-protein kinase Nek7 (Homo sapiens) (UniProt Q8TDX7); assay: Inhibition of human NEK7 assessed as residual activity at 1 uM using casein as substrate in presence of 33P-ATP by ProQinase assay relative to control
Serine/threonine-protein kinase Nek7 (Homo sapiens), sequence (Q8TDX7 whole entry, looked up): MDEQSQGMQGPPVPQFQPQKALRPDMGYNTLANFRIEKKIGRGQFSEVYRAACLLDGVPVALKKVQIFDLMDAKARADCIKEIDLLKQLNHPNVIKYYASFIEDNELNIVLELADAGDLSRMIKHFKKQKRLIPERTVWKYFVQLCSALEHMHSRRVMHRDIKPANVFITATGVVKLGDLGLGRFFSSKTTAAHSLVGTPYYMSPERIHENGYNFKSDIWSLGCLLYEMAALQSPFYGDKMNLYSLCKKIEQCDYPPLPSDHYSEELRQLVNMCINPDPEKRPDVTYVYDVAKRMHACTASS

[3] = molecular target: Dual specificity tyrosine-phosphorylation-regulated kinase 1B (Homo sapiens) (UniProt Q9Y463); assay: Inhibition of human DYRK1B assessed as residual activity at 1 uM using RBER-CHKtide as substrate in presence of 33P-ATP by ProQinase assay relative to control
Dual specificity tyrosine-phosphorylation-regulated kinase 1B (Homo sapiens), sequence (Q9Y463 whole entry, looked up): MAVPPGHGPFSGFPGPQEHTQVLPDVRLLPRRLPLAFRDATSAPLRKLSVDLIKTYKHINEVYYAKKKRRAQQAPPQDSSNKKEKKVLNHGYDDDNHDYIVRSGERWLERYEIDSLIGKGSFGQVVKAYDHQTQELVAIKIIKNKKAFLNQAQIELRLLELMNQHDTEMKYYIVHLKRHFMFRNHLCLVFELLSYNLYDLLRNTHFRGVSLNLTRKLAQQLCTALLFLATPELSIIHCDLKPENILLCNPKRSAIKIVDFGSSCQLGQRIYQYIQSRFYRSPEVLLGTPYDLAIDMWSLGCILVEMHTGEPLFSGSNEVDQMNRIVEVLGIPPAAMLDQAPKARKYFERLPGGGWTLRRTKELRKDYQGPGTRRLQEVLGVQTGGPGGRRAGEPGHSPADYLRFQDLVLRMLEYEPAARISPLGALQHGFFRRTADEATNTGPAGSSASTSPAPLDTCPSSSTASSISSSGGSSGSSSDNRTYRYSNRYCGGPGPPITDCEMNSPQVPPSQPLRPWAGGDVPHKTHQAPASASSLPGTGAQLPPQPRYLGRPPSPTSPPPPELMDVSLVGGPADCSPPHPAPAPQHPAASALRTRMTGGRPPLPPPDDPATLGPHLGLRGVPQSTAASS

[4] = system: Hepatocyte growth factor receptor (Homo sapiens), P08581 [M1250T]; assay: Inhibition of MET M1250T mutant (unknown origin) assessed as remaining activity at 1 uM by Kinome scan method relative to control
[5] = molecular target: T1, Megakaryocyte-associated tyrosine-protein kinase (Homo sapiens) (UniProt P42679); assay: Inhibition of human MATK assessed as residual activity at 1 uM using polyEy as substrate in presence of 33P-ATP by ProQinase assay relative to control
T1 sequence (whole entry): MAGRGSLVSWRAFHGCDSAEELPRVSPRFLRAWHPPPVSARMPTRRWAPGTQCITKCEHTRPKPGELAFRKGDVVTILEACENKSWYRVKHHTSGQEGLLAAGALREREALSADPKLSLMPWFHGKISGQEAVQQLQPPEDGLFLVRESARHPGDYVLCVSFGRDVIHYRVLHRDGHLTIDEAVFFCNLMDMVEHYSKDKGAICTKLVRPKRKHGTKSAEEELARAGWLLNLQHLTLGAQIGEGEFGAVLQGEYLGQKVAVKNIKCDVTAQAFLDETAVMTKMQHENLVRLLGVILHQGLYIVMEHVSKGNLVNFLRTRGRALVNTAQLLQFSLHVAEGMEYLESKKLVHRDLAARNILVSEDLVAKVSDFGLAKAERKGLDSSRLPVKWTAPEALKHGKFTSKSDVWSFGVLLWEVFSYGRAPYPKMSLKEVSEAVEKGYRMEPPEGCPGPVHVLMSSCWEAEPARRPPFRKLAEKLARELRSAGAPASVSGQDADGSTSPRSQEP

[6] = molecular target: T2, Muscle, skeletal receptor tyrosine-protein kinase (Homo sapiens) (UniProt O15146); assay: Inhibition of human MUSK assessed as residual activity at 1 uM using Poly(Ala,Glu,Lys,Tyr)6:2:5:1 as substrate in presence of 33P-ATP by ProQinase assay relative to control
T2 sequence (whole entry): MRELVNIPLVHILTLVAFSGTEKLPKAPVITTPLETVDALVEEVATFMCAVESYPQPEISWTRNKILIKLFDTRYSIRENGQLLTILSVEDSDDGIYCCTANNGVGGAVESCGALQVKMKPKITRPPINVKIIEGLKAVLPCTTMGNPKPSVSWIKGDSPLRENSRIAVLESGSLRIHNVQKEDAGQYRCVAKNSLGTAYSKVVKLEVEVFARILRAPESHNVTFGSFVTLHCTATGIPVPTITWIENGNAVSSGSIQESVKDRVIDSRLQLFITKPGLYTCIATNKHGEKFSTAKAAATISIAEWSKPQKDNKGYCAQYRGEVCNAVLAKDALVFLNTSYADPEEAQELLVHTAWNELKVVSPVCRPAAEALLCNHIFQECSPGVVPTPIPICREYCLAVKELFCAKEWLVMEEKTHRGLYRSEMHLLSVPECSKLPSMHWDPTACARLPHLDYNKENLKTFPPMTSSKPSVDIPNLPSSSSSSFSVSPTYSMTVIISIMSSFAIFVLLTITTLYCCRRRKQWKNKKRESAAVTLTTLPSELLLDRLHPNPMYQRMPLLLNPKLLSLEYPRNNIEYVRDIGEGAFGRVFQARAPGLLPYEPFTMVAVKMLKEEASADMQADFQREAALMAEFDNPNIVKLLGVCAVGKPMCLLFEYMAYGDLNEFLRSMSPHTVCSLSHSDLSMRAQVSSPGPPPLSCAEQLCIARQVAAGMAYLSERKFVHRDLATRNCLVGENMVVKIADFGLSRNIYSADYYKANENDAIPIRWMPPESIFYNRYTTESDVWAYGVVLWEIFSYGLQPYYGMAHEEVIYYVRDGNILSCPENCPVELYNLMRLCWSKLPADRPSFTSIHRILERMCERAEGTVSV

[7] = molecular target: Death-associated protein kinase 1 (Homo sapiens) (UniProt P53355); assay: Inhibition of human DAPK1 assessed as residual activity at 1 uM using RBER-GSK3 as substrate in presence of 33P-ATP by ProQinase assay relative to control
Death-associated protein kinase 1 (Homo sapiens), sequence (P53355 whole entry, looked up): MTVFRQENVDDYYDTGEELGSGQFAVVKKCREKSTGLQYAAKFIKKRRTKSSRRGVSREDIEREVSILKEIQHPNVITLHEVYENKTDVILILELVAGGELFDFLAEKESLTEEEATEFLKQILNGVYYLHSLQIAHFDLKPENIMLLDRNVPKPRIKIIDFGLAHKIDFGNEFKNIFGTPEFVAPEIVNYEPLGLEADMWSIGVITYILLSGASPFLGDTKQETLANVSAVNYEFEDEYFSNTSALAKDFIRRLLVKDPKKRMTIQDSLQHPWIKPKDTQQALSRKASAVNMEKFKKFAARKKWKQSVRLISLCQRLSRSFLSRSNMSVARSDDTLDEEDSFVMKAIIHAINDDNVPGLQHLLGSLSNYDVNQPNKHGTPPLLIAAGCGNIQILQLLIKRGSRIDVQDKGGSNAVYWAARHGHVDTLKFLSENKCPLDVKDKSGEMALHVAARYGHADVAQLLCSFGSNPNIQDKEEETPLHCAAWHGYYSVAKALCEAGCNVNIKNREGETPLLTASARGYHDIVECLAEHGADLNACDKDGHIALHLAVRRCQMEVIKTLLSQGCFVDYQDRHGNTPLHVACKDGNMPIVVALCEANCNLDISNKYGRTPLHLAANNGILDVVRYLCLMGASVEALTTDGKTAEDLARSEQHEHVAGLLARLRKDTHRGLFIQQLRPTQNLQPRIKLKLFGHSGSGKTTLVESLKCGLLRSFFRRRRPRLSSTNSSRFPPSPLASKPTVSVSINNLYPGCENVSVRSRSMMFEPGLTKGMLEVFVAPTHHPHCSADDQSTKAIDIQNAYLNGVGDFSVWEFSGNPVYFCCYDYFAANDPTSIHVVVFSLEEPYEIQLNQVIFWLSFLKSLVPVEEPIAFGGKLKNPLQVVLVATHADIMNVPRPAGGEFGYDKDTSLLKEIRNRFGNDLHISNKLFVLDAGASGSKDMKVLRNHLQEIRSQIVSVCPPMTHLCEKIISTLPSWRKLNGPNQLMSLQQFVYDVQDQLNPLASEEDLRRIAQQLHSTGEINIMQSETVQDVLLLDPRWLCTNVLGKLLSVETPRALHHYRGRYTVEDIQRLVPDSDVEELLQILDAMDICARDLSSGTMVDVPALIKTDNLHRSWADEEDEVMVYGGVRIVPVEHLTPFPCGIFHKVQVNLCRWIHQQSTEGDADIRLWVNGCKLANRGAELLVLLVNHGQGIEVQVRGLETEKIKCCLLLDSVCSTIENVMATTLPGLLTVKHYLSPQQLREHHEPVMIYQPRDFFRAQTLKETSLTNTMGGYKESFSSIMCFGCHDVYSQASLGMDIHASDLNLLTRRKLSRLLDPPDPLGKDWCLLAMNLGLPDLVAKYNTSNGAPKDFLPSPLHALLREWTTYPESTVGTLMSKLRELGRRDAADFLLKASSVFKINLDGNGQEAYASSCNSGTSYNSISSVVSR

[8] = molecular target: Serine/threonine-protein kinase Sgk1 (Homo sapiens) (UniProt O00141); assay: Inhibition of human SGK1 assessed as residual activity at 1 uM using RBER-GSK3(14-27) as substrate in presence of 33P-ATP by ProQinase assay relative to control
Serine/threonine-protein kinase Sgk1 (Homo sapiens), sequence (O00141 whole entry): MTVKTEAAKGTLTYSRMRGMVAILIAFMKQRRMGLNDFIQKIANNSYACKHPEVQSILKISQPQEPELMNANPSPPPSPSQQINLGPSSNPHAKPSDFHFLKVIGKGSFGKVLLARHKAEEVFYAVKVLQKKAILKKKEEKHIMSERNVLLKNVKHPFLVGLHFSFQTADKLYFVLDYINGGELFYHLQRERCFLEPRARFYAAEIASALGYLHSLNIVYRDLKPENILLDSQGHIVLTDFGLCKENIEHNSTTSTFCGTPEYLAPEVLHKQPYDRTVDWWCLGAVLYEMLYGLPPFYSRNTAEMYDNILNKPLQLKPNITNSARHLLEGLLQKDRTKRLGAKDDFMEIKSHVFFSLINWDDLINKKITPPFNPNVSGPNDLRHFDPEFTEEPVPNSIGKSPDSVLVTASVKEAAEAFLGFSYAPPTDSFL

[9] = molecular target: Serine/threonine-protein kinase 24 (Homo sapiens) (UniProt Q9Y6E0); assay: Inhibition of human MST3 assessed as residual activity at 1 uM using casein as substrate in presence of 33P-ATP by ProQinase assay relative to control
Serine/threonine-protein kinase 24 (Homo sapiens), sequence (Q9Y6E0 whole entry, looked up): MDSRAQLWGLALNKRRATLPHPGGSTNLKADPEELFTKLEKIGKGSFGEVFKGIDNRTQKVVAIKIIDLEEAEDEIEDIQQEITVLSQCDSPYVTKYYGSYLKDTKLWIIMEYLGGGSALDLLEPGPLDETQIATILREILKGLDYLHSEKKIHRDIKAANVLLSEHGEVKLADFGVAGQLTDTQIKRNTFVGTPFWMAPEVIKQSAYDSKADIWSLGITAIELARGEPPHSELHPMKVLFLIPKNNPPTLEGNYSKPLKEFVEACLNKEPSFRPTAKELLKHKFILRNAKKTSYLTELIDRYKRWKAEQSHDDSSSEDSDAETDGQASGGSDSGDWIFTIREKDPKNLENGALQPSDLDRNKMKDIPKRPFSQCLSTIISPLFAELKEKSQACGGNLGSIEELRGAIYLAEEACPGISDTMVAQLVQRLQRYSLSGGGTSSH

[10] = molecular target: Tyrosine-protein kinase receptor UFO (Homo sapiens) (UniProt P30530); assay: Inhibition of AXL (unknown origin) assessed as remaining activity at 1 uM by Kinome scan method relative to control
Tyrosine-protein kinase receptor UFO (Homo sapiens), sequence (P30530 whole entry): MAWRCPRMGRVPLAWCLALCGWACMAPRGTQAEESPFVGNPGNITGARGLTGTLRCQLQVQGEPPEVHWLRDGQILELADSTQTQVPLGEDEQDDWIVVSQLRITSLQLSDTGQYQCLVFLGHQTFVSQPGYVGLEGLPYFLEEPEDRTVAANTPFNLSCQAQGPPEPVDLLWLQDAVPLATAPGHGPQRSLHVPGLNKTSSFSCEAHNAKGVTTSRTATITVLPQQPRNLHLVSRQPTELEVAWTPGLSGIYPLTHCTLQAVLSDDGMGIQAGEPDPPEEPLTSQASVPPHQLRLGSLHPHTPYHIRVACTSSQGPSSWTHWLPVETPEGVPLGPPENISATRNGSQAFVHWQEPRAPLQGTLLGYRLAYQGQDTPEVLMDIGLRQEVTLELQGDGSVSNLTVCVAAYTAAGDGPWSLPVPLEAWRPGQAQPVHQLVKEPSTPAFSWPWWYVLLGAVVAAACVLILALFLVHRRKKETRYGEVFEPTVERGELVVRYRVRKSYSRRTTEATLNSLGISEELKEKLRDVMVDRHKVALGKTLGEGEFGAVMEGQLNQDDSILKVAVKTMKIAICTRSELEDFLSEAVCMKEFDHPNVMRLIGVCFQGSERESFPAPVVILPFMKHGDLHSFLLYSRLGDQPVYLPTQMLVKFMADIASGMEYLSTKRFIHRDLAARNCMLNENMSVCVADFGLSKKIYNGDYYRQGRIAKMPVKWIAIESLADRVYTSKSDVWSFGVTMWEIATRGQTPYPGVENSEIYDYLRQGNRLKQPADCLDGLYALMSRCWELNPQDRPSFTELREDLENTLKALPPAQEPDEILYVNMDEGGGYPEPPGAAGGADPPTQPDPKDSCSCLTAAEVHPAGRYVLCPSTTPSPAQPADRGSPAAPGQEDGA

O=C1c2ccc(Nc3ccc(F)cc3F)cc2CCc2ccc(OC[C@H](O)CO)cc21 [Skepinone-L]
Activity [1]: 100% | Activity [2]: 83% | Activity [3]: 102% | Activity [4]: 93% | Activity [5]: 111% | Activity [6]: 106% | Activity [7]: 86% | Activity [8]: 90% | Activity [9]: 106% | Activity [10]: 94%
